System: yeast genes (expressed mRNA)
Assay: DNA chip measurement of expressed mRNA of yeast genes after culture with a toxic chemical substance
Format: cell-based, Saccharomyces cerevisiae S288C
Settings: for level of expressed mRNA in the presence of chemical substance / level in the absence of chemical substance: cultured two hours with the chemical substance; for The level of expressed mRNA in the presence of chemical substance/The level of expressed mRNA in the absence of chemical substance: cultured two hours with substance
Experimental: Yeast (Saccharomyces cerevisiae S288C (a SUC2mal mel gap2 CUP1)) were cultured at 25° C. on YPD medium (yeast extract 1%, polypeptone 2%, glucose 2%). One of toxic chemical substances was added to the cell at logarithmic growth phase, and the cell was further cultured for two hours. Cell was cultured without any chemical substance in the same condition, and was used as a control. Concentrations of the chemical substances were defined to inhibit the growth of the yeast but not lead to death.
After the completion of cultivation, the culture was centrifuged to collect the cells. To the cells, sodium acetate buffer (50 mM sodium acetate, 10 mM EDTA, 1% SDS) was added, and the mixture was shaken at 65° C. for five minutes, followed by returning to room temperature, and obtaining the supernatant, which procedure was repeated two times. To the supernatant, ½ amount of a solution of phenol/chloroform (1:1) was added, and the mixture was centrifuged to give a supernatant, an equal amount of chloroform was added, and the mixture was centrifuged to give a supernatant. To the supernatant, an equal amount of isopropanol containing 0.3 M sodium acetate was added, and the mixture was allowed to stand at room temperature for 30 minutes, after which the mixture was centrifuged to give sediment of the whole RNAs. Seventy % ethanol was added to the sediment, and the mixture was again centrifuged to give sediment, which was then dried and dissolved in water. mRNA was isolated from the whole RNAs as followings. In view of the fact that a poly A chain is attached to the 3′ terminus of mRNA, a polynucleotide having a poly T structure which was immobilized on the surface of latex beads was used to trap the mRNA, and then the mRNA was washed and eluted with spine column (Oligotex-dT30<Super>mRNA Purification Kit, Takara). Reverse transcription of the mRNA was conducted with a reverse transcriptase (Super Script II Reverse Transcriptase; catalogue No. 18064-014, GibcoBRL) using fluorescence-labeled nucleotides to give cDNAs that were introduced with Cy3-dUTP or Cy5-dUTP during the reverse transcription.
The labeled cDNAs were dissolved in TE buffer (10 mM Tris-HCl/1 mM EDTA, pH 8.0), and the solution was dropped on the DNA chip containing the whole genes of yeast (DNA Chip Research Inc. Japan) so that the cDNAs were hybridized on the DNA chip at 65° C. for over 12 hours. The fluoresces intensity of the DNA chip was read with a scanner, and the ratio relative to the fluorescence intensity resulting from the absence of chemical substance was estimated as the following, which is shown in Tables 1 to 9.
In the Tables, “Intensity” indicated in the rightmost column is a value of the level of expressed mRNA of each gene in control cells as divided by the average level of the expressions of the whole genes. A gene of which mRNA level is lower in control, and is higher in cases of addition of chemical substance, is especially useful in the detection of toxic substances.
Here, when a ratio of an amount of mRNA expressed in the presence of the chemical substance to an amount of mRNA expressed in the absence of the chemical substance is two or more, then it is considered significant.

SMILES: CCCCCCCCCCCCc1ccc(S(=O)(=O)[O-])cc1.[Na+] [(17), Sodium dodecylbenzosulfonate]
- level of expressed mRNA in the presence of chemical substance / level in the absence of chemical substance (yeast gene YJL097W): 1.2
- The level of expressed mRNA in the presence of chemical substance/The level of expressed mRNA in the absence of chemical substance (yeast gene YJL151C): 3.5
- The level of expressed mRNA in the presence of chemical substance/The level of expressed mRNA in the absence of chemical substance (yeast gene YJL152W): 2.5
- The level of expressed mRNA in the presence of chemical substance/The level of expressed mRNA in the absence of chemical substance (yeast gene YJL161W): 1.9
- The level of expressed mRNA in the presence of chemical substance/The level of expressed mRNA in the absence of chemical substance (yeast gene YJL171C): 3.6
- The level of expressed mRNA in the presence of chemical substance/The level of expressed mRNA in the absence of chemical substance (yeast gene YJR008W): 1.5
- level of expressed mRNA in the presence of chemical substance / level in the absence of chemical substance (yeast gene YJR030C): 0.7
- The level of expressed mRNA in the presence of chemical substance/The level of expressed mRNA in the absence of chemical substance (yeast gene YJR054W): 0.9
- level of expressed mRNA in the presence of chemical substance / level in the absence of chemical substance (yeast gene YKL051W): 1.5
- The level of expressed mRNA in the presence of chemical substance/The level of expressed mRNA in the absence of chemical substance (yeast gene YKL071W): 1.0
- The level of expressed mRNA in the presence of chemical substance/The level of expressed mRNA in the absence of chemical substance (yeast gene YKL086W): 0.9
- level of expressed mRNA in the presence of chemical substance / level in the absence of chemical substance (yeast gene YKL097C): 1.1
- level of expressed mRNA in the presence of chemical substance / level in the absence of chemical substance (yeast gene YKL100C): 0.7
- The level of expressed mRNA in the presence of chemical substance/The level of expressed mRNA in the absence of chemical substance (yeast gene YKL151C): 1.4
- The level of expressed mRNA in the presence of chemical substance/The level of expressed mRNA in the absence of chemical substance (yeast gene YKL153W): 0.9
- The level of expressed mRNA in the presence of chemical substance/The level of expressed mRNA in the absence of chemical substance (yeast gene YKL195W): 1.4
- level of expressed mRNA in the presence of chemical substance / level in the absence of chemical substance (yeast gene YKR040C): 0.7
- The level of expressed mRNA in the presence of chemical substance/The level of expressed mRNA in the absence of chemical substance (yeast gene YKR091W): 1.6
- The level of expressed mRNA in the presence of chemical substance/The level of expressed mRNA in the absence of chemical substance (yeast gene YLR054C): 1.6
- The level of expressed mRNA in the presence of chemical substance/The level of expressed mRNA in the absence of chemical substance (yeast gene YLR149C): 1.3
- The level of expressed mRNA in the presence of chemical substance/The level of expressed mRNA in the absence of chemical substance (yeast gene YLR152C): 1.5
- The level of expressed mRNA in the presence of chemical substance/The level of expressed mRNA in the absence of chemical substance (yeast gene YLR194C): 1.0
- level of expressed mRNA in the presence of chemical substance / level in the absence of chemical substance (yeast gene YLR226W): 1.1
- The level of expressed mRNA in the presence of chemical substance/The level of expressed mRNA in the absence of chemical substance (yeast gene YLR324W): 1.2
- level of expressed mRNA in the presence of chemical substance / level in the absence of chemical substance (yeast gene YLR338W): 0.8
- The level of expressed mRNA in the presence of chemical substance/The level of expressed mRNA in the absence of chemical substance (yeast gene YLR350W): 1.6
- The level of expressed mRNA in the presence of chemical substance/The level of expressed mRNA in the absence of chemical substance (yeast gene YLR387C): 1.0
- level of expressed mRNA in the presence of chemical substance / level in the absence of chemical substance (yeast gene YLR392C): 0.8
- level of expressed mRNA in the presence of chemical substance / level in the absence of chemical substance (yeast gene YLR415C): 0.8
- level of expressed mRNA in the presence of chemical substance / level in the absence of chemical substance (yeast gene YLR427W): 1.0
- The level of expressed mRNA in the presence of chemical substance/The level of expressed mRNA in the absence of chemical substance (yeast gene YLR460C): 1.0
- level of expressed mRNA in the presence of chemical substance / level in the absence of chemical substance (yeast gene YML013W): 1.1
- level of expressed mRNA in the presence of chemical substance / level in the absence of chemical substance (yeast gene YML029W): 1.2
- level of expressed mRNA in the presence of chemical substance / level in the absence of chemical substance (yeast gene YML041C): 1.3
- level of expressed mRNA in the presence of chemical substance / level in the absence of chemical substance (yeast gene YML079W): 1.4
- The level of expressed mRNA in the presence of chemical substance/The level of expressed mRNA in the absence of chemical substance (yeast gene YML117W): 1.1
- The level of expressed mRNA in the presence of chemical substance/The level of expressed mRNA in the absence of chemical substance (yeast gene YMR009W): 2.7
- The level of expressed mRNA in the presence of chemical substance/The level of expressed mRNA in the absence of chemical substance (yeast gene YMR067C): 1.0
- level of expressed mRNA in the presence of chemical substance / level in the absence of chemical substance (yeast gene YMR068W): 1.3
- level of expressed mRNA in the presence of chemical substance / level in the absence of chemical substance (yeast gene YMR071C): 1.2
- The level of expressed mRNA in the presence of chemical substance/The level of expressed mRNA in the absence of chemical substance (yeast gene YMR090W): 1.8
- The level of expressed mRNA in the presence of chemical substance/The level of expressed mRNA in the absence of chemical substance (yeast gene YMR095C): 1.0
- The level of expressed mRNA in the presence of chemical substance/The level of expressed mRNA in the absence of chemical substance (yeast gene YMR097C): 1.4
- The level of expressed mRNA in the presence of chemical substance/The level of expressed mRNA in the absence of chemical substance (yeast gene YMR102C): 2.4
- The level of expressed mRNA in the presence of chemical substance/The level of expressed mRNA in the absence of chemical substance (yeast gene YMR107W): 1.3
- level of expressed mRNA in the presence of chemical substance / level in the absence of chemical substance (yeast gene YMR160W): 0.9
- The level of expressed mRNA in the presence of chemical substance/The level of expressed mRNA in the absence of chemical substance (yeast gene YMR180C): 1.4
- The level of expressed mRNA in the presence of chemical substance/The level of expressed mRNA in the absence of chemical substance (yeast gene YMR184W): 1.4
- The level of expressed mRNA in the presence of chemical substance/The level of expressed mRNA in the absence of chemical substance (yeast gene YMR191W): 1.2
- The level of expressed mRNA in the presence of chemical substance/The level of expressed mRNA in the absence of chemical substance (yeast gene YMR295C): 2.1
- The level of expressed mRNA in the presence of chemical substance/The level of expressed mRNA in the absence of chemical substance (yeast gene YMR316W): 6.9
- level of expressed mRNA in the presence of chemical substance / level in the absence of chemical substance (yeast gene YNL026W): 1.0
- The level of expressed mRNA in the presence of chemical substance/The level of expressed mRNA in the absence of chemical substance (yeast gene YNL044W): 3.1

Reference: patent publication US20100041089A1, “IMPROVED METHOD FOR DETECTING CHEMICAL […]” (priority 2006, published 2010)
